Source: the RepoRT retention time repository

Assay: HILIC, Waters ACQUITY UPLC BEH Amide, 100 × 2.1 mm, 1.7 µm; A: water + 0.125% formic acid + 10 mM ammonium formate; B: 5% water + 95% acetonitrile + 0.125% formic acid + 10 mM ammonium formate; gradient (min/%B) 0/100 2/100 7.7/70 9.5/40 10.25/30 12.75/100 17/100
Details: stereoisomer not certain

| SMILES | LC retention time [min] |
| --- | --- |
| CCN(CC)CC(=O)Nc1c(C)cccc1C [Lidocaine] | 1.97 |
| CCOC(=O)C1=C(COCCN)NC(C)=C(C(=O)OC)C1c1ccccc1Cl (stereo not given) [Amlodipine] | 4.24 |
| CC(=O)Nc1ccccc1 [Acetanilide] | 1.11 |
| c1ccc2c3c([nH]c2c1)CNCC3 [Tryptoline] | 4.9 |
| Nc1ccn(C2OC(COP(=O)(O)O)C(O)C2O)c(=O)n1 (stereo not given) [Cytidine-5'-monophosphate] | 9.48 |
| CCCCC(N)C(=O)O (stereo not given) [Norleucine] | 6.99 |
| CC(OP(=O)(O)O)C(N)C(=O)O (stereo not given) [o-Phosphothreonine] | 9.74 |
| O=C1Nc2ccc(Cl)cc2C(c2ccccc2)=NC1O (stereo not given) [Oxazepam] | 1.37 |
| O=C(O)CC(O)CC(O)C=Cc1c(C2CC2)nc2ccccc2c1-c1ccc(F)cc1 (stereo not given) [Pitavastatin] | 1.36 |
| CC(O)C(C)O (stereo not given) [2,3-Butanediol] | 3.34 |
| O=C1CCC(C(=O)N2CSCC2C(=O)O)N1 (stereo not given) [Pidotimod] | 7.3 |
| CCCC(C)(COC(N)=O)COC(N)=O [Meprobamate] | 1.25 |
| O=[N+]([O-])c1cccc2cn[nH]c12 [7-Nitroindazole] | 1.03 |
| O=C(O)Cc1c[nH]c2ccccc12 [3-Indoleacetic acid] | 1.33 |
| N=c1ccc2nc3ccc(N)cc3sc-2c1 [Thionin] | 5.23 |
| O=c1[nH]cnc2nc[nH]c12 [Hypoxanthine] | 4.99 |
| CCOC(=O)C1=C(C)NC(C)=C(C(=O)OC)C1c1cccc([N+](=O)[O-])c1 (stereo not given) [Nitrendipine] | 0.95 |
| CC(C)CC(N)C(=O)N1CCCC1C(=O)O (stereo not given) [Leu-Pro] | 7.32 |
| CNc1ccccc1C(=O)O [N-Methylanthranilic acid] | 1.22 |
| O=C(CCCN1CCC(O)(c2ccc(Cl)cc2)CC1)c1ccc(F)cc1 [Haloperidol] | 2.31 |
| CN(C)CCc1c[nH]c2ccc(CC3COC(=O)N3)cc12 (stereo not given) [Zolmitriptan] | 4.8 |
| CC(COc1ccccc1Cc1ccccc1)N1CCCCC1 (stereo not given) [Benproperine] | 1.99 |
| NC(Cc1ccc(O)c([N+](=O)[O-])c1)C(=O)O (stereo not given) [3-Nitrotyrosine] | 6.88 |
| CN1C2CCC1C(C(=O)O)C(OC(=O)c1ccccc1)C2 (stereo not given) [Benzoylecgonine] | 3.63 |

| SMILES | LC retention time [min] |
| --- | --- |
| CC1CCN(CCCC(=O)c2ccc(F)cc2)CC1 [Melperone] | 2.12 |
| CC(=O)NC1C(O)OC(CO)C(O)C1O (stereo not given) [N-Acetylmannosamine] | 7.01 |
| CC1NCCOC1c1ccccc1 (stereo not given) [Phenmetrazine] | 4.04 |
| NCCCCNCCCN [Spermidine] | 6.98 |
| CN1C(=O)CCC1c1ccc[n+]([O-])c1 [(S)-Cotinine N-oxide] | 3.87 |
| O=C(O)C1CCCN1 (stereo not given) [Proline] | 7.83 |
| CC[N+](C)(CC)CCOC(=O)C(O)(c1ccccc1)C1CCCCC1 (stereo not given) [Oxyphenonium] | 2.01 |
| CNCCCCC(N)C(=O)O (stereo not given) [N-Methyllysine] | 9.36 |
| CC(=O)N[C@@H](CCCCN)C(=O)O [N.alpha.-Acetyl-L-lysine] | 8.15 |
| O=C1CCc2ccc(OCCCCN3CCN(c4cccc(Cl)c4Cl)CC3)cc2N1 [Aripiprazole] | 3.14 |
| Cc1nc2n(c(=O)c1CCN1CCC(c3noc4cc(F)ccc34)CC1)CCCC2 [Risperidone] | 3.52 |
| O=C(O)c1cc(O)ccc1O [Gentisinic acid] | 3.18 |
| CCCCC1=NC2(CCCC2)C(=O)N1Cc1ccc(-c2ccccc2-c2nn[nH]n2)cc1 [Irbesartan] | 1.16 |
| Cn1cncc1CC(N)C(=O)O (stereo not given) [3-Methylhistidine] | 9.41 |
| COc1ccc2c(c1OC)C(=O)OC2C1c2c(cc3c(c2OC)OCO3)CCN1C (stereo not given) [Noscapine] | 1.31 |
| CCc1ccc(CCOc2ccc(CC3SC(=O)NC3=O)cc2)nc1 (stereo not given) [Pioglitazone] | 1.11 |
| CC(C)Oc1ccc2c(=O)c(-c3ccccc3)coc2c1 [Ipriflavone] | 0.94 |
| Nc1c2c(nc3c1CCC3)CCCC2 [Ipidacrine] | 3.33 |
| CCOP(=O)(OCC)Oc1ccc([N+](=O)[O-])cc1 [Paraoxon] | 1.02 |
| O=C(O)CCCCCCC(O)CC(=O)O (stereo not given) [3-Hydroxysebacic acid] | 2.55 |
| O=c1[nH]cnc2c1ncn2C1OC(CO)C(O)C1O (stereo not given) [Inosine] | 6.19 |
| CC(O)(CS(=O)(=O)c1ccc(F)cc1)C(=O)Nc1ccc(C#N)c(C(F)(F)F)c1 (stereo not given) [Bicalutamide] | 0.99 |
| Nc1ccn(C2OC(CO)C(O)C2O)c(=S)n1 (stereo not given) [2-Thiocytidine] | 5.33 |
| CCCCCC(O)CC (stereo not given) [3-Octanol] | 8.47 |

| SMILES | LC retention time [min] |
| --- | --- |
| Clc1cccc(Cl)c1NC1=NCCN1 [Clonidine] | 2.85 |
| NCC(O)c1ccccc1 (stereo not given) [Phenylethanolamine] | 5.51 |
| NCC(=O)c1ccccc1 [2-Aminoacetophenone] | 1.08 |
| CC(=O)Nc1ccc(CC(=O)O)cc1 [Actrarit] | 1.58 |
| Cn1c(=O)c2[nH]cnc2n(C)c1=O [Theophylline] | 1.54 |
| CC(N)C(=O)NC(CCC(N)=O)C(=O)O (stereo not given) [Ala-Gln] | 9.11 |
| CC(C)CC(O)C(=O)O (stereo not given) [2-Hydroxy-4-methylpentanoic acid] | 1.57 |
| CCCCN1CCCC1CNC(=O)c1cc(C#N)c2ccccc2c1OC (stereo not given) [Nafadotride] | 2.05 |
| CCCCCC=CCC=CCCCCCCCC(=O)OC(CC(=O)[O-])C[N+](C)(C)C (stereo not given) [Linoleoylcarnitine] | 3.1 |
| O=C(O)CNC(=O)C=Cc1ccccc1 [N-Cinnamoylglycine] | 2.95 |
| CCCN1CCCCC1C(=O)Nc1c(C)cccc1C (stereo not given) [Ropivacaine] | 2.49 |
| O=C(NCCO[N+](=O)[O-])c1cccnc1 [Nicorandil] | 1.11 |
| COc1ccccc1N1CCN(CCCNc2cc(=O)n(C)c(=O)n2C)CC1 [Urapidil] | 4.58 |
| O=c1ccn(C2OC(COP(=O)(O)O)C(O)C2O)c(=O)[nH]1 (stereo not given) [Uridine 5'-monophosphate] | 8.97 |
| CN(C)c1nc2c(ncn2C2OC(CO)C(O)C2O)c(=O)[nH]1 (stereo not given) [N2,N2-Dimethylguanosine] | 5.62 |
| CC(=O)Nc1ccn(C2OC(CO)C(O)C2O)c(=O)n1 (stereo not given) [N-Acetylcytidine] | 5.08 |
| Clc1ccccc1CN1CCc2sccc2C1 [Ticlopidine] | 1.12 |
| CCC=CCC1C(=O)CCC1CC(=O)OC (stereo not given) [Methyl jasmonate] | 1.04 |
| CC(=O)OC1(C(C)=O)CCC2C3C=C(C)C4=CC(=O)CCC4(C)C3CCC21C (stereo not given) [Megestrol Acetate] | 0.96 |
| CN1C(=O)CC(=O)N(c2ccccc2)c2cc(Cl)ccc21 [Clobazam] | 1.1 |
| COc1cc(CNC(=O)CCCCC=CC(C)C)ccc1O [Capsaicin] | 1 |
| Cc1cn(C2OC(CO)CC2O)c(=O)[nH]c1=O (stereo not given) [5-Methyl-3-deoxyuridine] | 2.6 |
| CC(NC(C)(C)C)C(=O)c1cccc(Cl)c1 (stereo not given) [Bupropion] | 2.22 |
| CCOc1cc(CC(=O)NC(CC(C)C)c2ccccc2N2CCCCC2)ccc1C(=O)O (stereo not given) [Repaglinide] | 1.01 |

| SMILES | LC retention time [min] |
| --- | --- |
| CN1CCC(=C2c3ccccc3CCc3sccc32)CC1 [Pizotifen] | 2.33 |
| CC(C)(C)NC(=O)C1CN(Cc2cccnc2)CCN1CC(O)CC(Cc1ccccc1)C(=O)NC1c2ccccc2CC1O (stereo not given) [Indinavir] | 2.17 |
| CC(C)C(=O)C(=O)O [Ketoisovaleric acid] | 2.84 |
| CN(C)CCN(Cc1ccccc1)c1ccccn1 [Tripelennamine] | 1.98 |
| CC(=O)N1C(=O)C(=O)c2ccccc21 [Acetylisatin] | 2.4 |
| NCCc1ccccc1 [Phenethylamine] | 4.87 |
| NCC(=O)NC(Cc1ccc(O)cc1)C(=O)O (stereo not given) [Gly-Tyr] | 8.07 |
| CN(C)CCC(c1ccc(Cl)cc1)c1ccccn1 (stereo not given) [Chlorpheniramine] | 2.54 |
| CN(C)CC(=O)O [N,N-Dimethylglycine] | 7.4 |
| CC(N)C(=O)NC(C(=O)O)C(C)C (stereo not given) [Ala-Val] | 7.66 |
| CCNC(C)Cc1ccc2c(c1)OCO2 (stereo not given) [3,4-Methylenedioxyethamphetamine] | 2.94 |
| CC(=O)NC(CC(=O)O)C(=O)NC(CCC(=O)O)C(=O)O (stereo not given) [N-Acetyl-Asp-Glu] | 8.11 |
| CNC(Cc1ccccc1)C(=O)O (stereo not given) [N-Methylphenylalanine] | 6.22 |
| Cc1ccc(O)c(C(CCN(C(C)C)C(C)C)c2ccccc2)c1 (stereo not given) [Tolterodine] | 2.13 |
| CC(NC(=O)C(Cc1ccc(O)cc1)NC(=O)CN)C(=O)O (stereo not drawn) [Gly-Tyr-Ala] | 7.89 |
| COc1cc(C(=O)NC2CCCNC2)cc(OC)c1OC (stereo not given) [Troxipide] | 5.04 |
| CC(=O)Nc1ccc(OC2OC(C(=O)O)C(O)C(O)C2O)cc1 (stereo not given) [Acetaminophen glucuronide] | 7.73 |
| CC(NC(=O)C(N)CCCN=C(N)N)C(=O)O (stereo not given) [Arg-Ala] | 9.66 |
| O=c1ccn(C2CC(O)C(COP(=O)(O)O)O2)c(=O)[nH]1 (stereo not given) [Deoxyuridine monophosphate] | 8.25 |
| CC(=O)OC(CC(=O)[O-])C[N+](C)(C)C (stereo not given) [Acetylcarnitine] | 7.19 |
| CN1CCC(=C2c3ccccc3C=Cc3ccccc32)CC1 [Cyproheptadine] | 2.31 |
| CC(C)C(=O)O [Isobutyric acid] | 1.77 |
| O=C(NCCN1CCOCC1)c1ccc(Cl)cc1 [Moclobemide] | 2.03 |
